Measured values published in the NIST ThermoML archive (doi:10.1016/j.tca.2011.06.003).

Assay: xn = mol fraction of the nth substance listed
Conditions: 101 kPa, Liquid; for speed of sound: Sing-around technique in a fixed-path interferometer; for mass density: Vibrating tube method

NCCNCCN [di(2-aminoethyl)amine] + CC(C)O
Conditions | mass density [kg/m3] | speed of sound [m/s] | viscosity [mPa·s]
293.15 K, x1 = 0.0534 | 803.892 | 1206.4 | –
293.15 K, x1 = 0.1022 | 818.972 | 1244.9 | –
293.15 K, x1 = 0.1556 | 830.953 | 1283.2 | –
293.15 K, x1 = 0.2053 | 842.389 | 1318.6 | –
293.15 K, x1 = 0.2541 | 852.667 | 1350.5 | –
293.15 K, x1 = 0.3083 | 863.147 | 1383.9 | –
293.15 K, x1 = 0.4044 | 880.002 | 1438.7 | –
293.15 K, x1 = 0.5025 | 894.43 | 1488.6 | –
293.15 K, x1 = 0.6122 | 909.336 | 1538.2 | –
293.15 K, x1 = 0.711 | 921.252 | 1583.2 | –
293.15 K, x1 = 0.8021 | 930.895 | 1618.9 | –
293.15 K, x1 = 0.8555 | 936.343 | 1638 | –
293.15 K, x1 = 0.9092 | 941.621 | 1658.5 | –
293.15 K, x1 = 0.953 | 945.719 | 1673.3 | –
298.15 K, x1 = 0.0532 | – | – | 2.514
298.15 K, x1 = 0.0534 | 799.63 | 1188.7 | –
298.15 K, x1 = 0.1022 | 814.391 | 1227.2 | 2.884
298.15 K, x1 = 0.1556 | 826.675 | 1265.5 | 3.313
298.15 K, x1 = 0.2053 | 838.104 | 1300.9 | 3.628
298.15 K, x1 = 0.2541 | 848.377 | 1332.6 | 3.97
298.15 K, x1 = 0.3083 | 858.864 | 1365.9 | 4.268
298.15 K, x1 = 0.4044 | 875.743 | 1420.7 | 4.708
298.15 K, x1 = 0.5025 | 890.185 | 1470 | 4.984
298.15 K, x1 = 0.6122 | 905.106 | 1518.9 | 5.192
298.15 K, x1 = 0.711 | 917.035 | 1563.1 | 5.223
298.15 K, x1 = 0.8021 | 926.667 | 1599.5 | 5.286
298.15 K, x1 = 0.8555 | 932.115 | 1618.5 | 5.383
298.15 K, x1 = 0.9092 | 937.389 | 1638.7 | 5.441
298.15 K, x1 = 0.953 | 941.486 | 1653.4 | 5.54
303.15 K, x1 = 0.0532 | – | – | 2.087
303.15 K, x1 = 0.0534 | 795.321 | 1171.2 | –
303.15 K, x1 = 0.1022 | 809.803 | 1209.5 | 2.388
303.15 K, x1 = 0.1556 | 822.362 | 1247.7 | 2.697
303.15 K, x1 = 0.2053 | 833.79 | 1282.9 | 2.976
303.15 K, x1 = 0.2541 | 844.065 | 1314.6 | 3.217
303.15 K, x1 = 0.3083 | 854.559 | 1347.8 | 3.423
303.15 K, x1 = 0.4044 | 871.471 | 1402.2 | 3.721
303.15 K, x1 = 0.5025 | 885.922 | 1452.9 | 3.901
303.15 K, x1 = 0.6122 | 900.866 | 1503.2 | 4.08
303.15 K, x1 = 0.711 | 912.782 | 1543 | 4.184
303.15 K, x1 = 0.8021 | 922.433 | 1579.1 | 4.264
303.15 K, x1 = 0.8555 | 927.887 | 1599 | 4.357
303.15 K, x1 = 0.9092 | 933.158 | 1619 | 4.423
303.15 K, x1 = 0.953 | 937.25 | 1634.5 | 4.47
308.15 K, x1 = 0.0532 | – | – | 1.858
308.15 K, x1 = 0.0534 | 790.957 | 1153.7 | –
308.15 K, x1 = 0.1022 | 805.422 | 1191.8 | 2.064
308.15 K, x1 = 0.1556 | 818.019 | 1230 | 2.315
308.15 K, x1 = 0.2053 | 829.45 | 1265.1 | 2.526
308.15 K, x1 = 0.2541 | 839.731 | 1296.8 | 2.708
308.15 K, x1 = 0.3083 | 850.238 | 1329.7 | 2.875
308.15 K, x1 = 0.4044 | 867.103 | 1383.3 | 3.121
308.15 K, x1 = 0.5025 | 881.653 | 1432.7 | 3.296
308.15 K, x1 = 0.6122 | 896.616 | 1483.5 | 3.442
308.15 K, x1 = 0.711 | 908.535 | 1525.3 | 3.539
308.15 K, x1 = 0.8021 | 918.202 | 1561.5 | 3.608
308.15 K, x1 = 0.8555 | 923.66 | 1580.4 | 3.683
308.15 K, x1 = 0.9092 | 928.927 | 1599.6 | 3.734
308.15 K, x1 = 0.953 | 933.022 | 1615.1 | 3.771
313.15 K, x1 = 0.0534 | 786.529 | 1136.1 | –
313.15 K, x1 = 0.1022 | 801.012 | 1174.3 | –
313.15 K, x1 = 0.1556 | 813.627 | 1212.7 | –
313.15 K, x1 = 0.2053 | 825.068 | 1247.5 | –
313.15 K, x1 = 0.2541 | 835.36 | 1278.6 | –
313.15 K, x1 = 0.3083 | 845.885 | 1311.4 | –
313.15 K, x1 = 0.4044 | 862.786 | 1365.6 | –
313.15 K, x1 = 0.5025 | 877.353 | 1415.7 | –
313.15 K, x1 = 0.6122 | 892.409 | 1467 | –
313.15 K, x1 = 0.711 | 904.278 | 1509.1 | –
313.15 K, x1 = 0.8021 | 913.964 | 1543.4 | –
313.15 K, x1 = 0.8555 | 919.421 | 1562.1 | –
313.15 K, x1 = 0.9092 | 924.691 | 1580.8 | –
313.15 K, x1 = 0.953 | 928.787 | 1595.2 | –

NCCNCCN [di(2-aminoethyl)amine] + CC(C)CO
Conditions | mass density [kg/m3] | speed of sound [m/s] | viscosity [mPa·s]
293.15 K, x1 = 0.054 | 815.237 | 1243 | –
293.15 K, x1 = 0.1043 | 826.644 | 1275.2 | –
293.15 K, x1 = 0.1529 | 836.817 | 1305.2 | –
293.15 K, x1 = 0.2068 | 847.162 | 1337.4 | –
293.15 K, x1 = 0.2535 | 855.512 | 1364.9 | –
293.15 K, x1 = 0.305 | 863.833 | 1390.5 | –
293.15 K, x1 = 0.4057 | 878.879 | 1439.4 | –
293.15 K, x1 = 0.5036 | 892.182 | 1484.7 | –
293.15 K, x1 = 0.6053 | 905.319 | 1531.6 | –
293.15 K, x1 = 0.7048 | 919.507 | 1570.3 | –
293.15 K, x1 = 0.8098 | 929.46 | 1613.2 | –
293.15 K, x1 = 0.8522 | 933.916 | 1630.9 | –
293.15 K, x1 = 0.9074 | 939.952 | 1653.2 | –
293.15 K, x1 = 0.9537 | 944.995 | 1671.9 | –
298.15 K, x1 = 0.054 | 811.313 | 1226.2 | 4.027
298.15 K, x1 = 0.1043 | 822.66 | 1258 | 4.548
298.15 K, x1 = 0.1529 | 832.792 | 1287.9 | 5.094
298.15 K, x1 = 0.2068 | 843.096 | 1319.8 | 5.514
298.15 K, x1 = 0.2535 | 851.38 | 1345.4 | 5.73
298.15 K, x1 = 0.305 | 859.744 | 1372.5 | 5.908
298.15 K, x1 = 0.4057 | 874.785 | 1421.6 | 6.024
298.15 K, x1 = 0.5036 | 888.088 | 1466.7 | 5.962
298.15 K, x1 = 0.6053 | 901.203 | 1511.4 | 5.795
298.15 K, x1 = 0.7048 | 915.398 | 1551.7 | 5.661
298.15 K, x1 = 0.8098 | 925.283 | 1594.3 | 5.603
298.15 K, x1 = 0.8522 | 929.73 | 1611.7 | 5.574
298.15 K, x1 = 0.9074 | 935.74 | 1633.9 | 5.541
298.15 K, x1 = 0.9537 | 940.776 | 1651.9 | 5.539
303.15 K, x1 = 0.054 | 807.355 | 1209.3 | 3.292
303.15 K, x1 = 0.1043 | 818.653 | 1241.1 | 3.707
303.15 K, x1 = 0.1529 | 828.735 | 1270.7 | 4.092
303.15 K, x1 = 0.2068 | 839.013 | 1302.4 | 4.365
303.15 K, x1 = 0.2535 | 847.289 | 1328.1 | 4.521
303.15 K, x1 = 0.305 | 855.641 | 1355.1 | 4.656
303.15 K, x1 = 0.4057 | 870.683 | 1404.1 | 4.762
303.15 K, x1 = 0.5036 | 883.968 | 1449.2 | 4.732
303.15 K, x1 = 0.6053 | 897.071 | 1493.2 | 4.695
303.15 K, x1 = 0.7048 | 911.268 | 1533.6 | 4.652
303.15 K, x1 = 0.8098 | 921.103 | 1575.5 | 4.575
303.15 K, x1 = 0.8522 | 925.54 | 1592.9 | 4.525
303.15 K, x1 = 0.9074 | 931.531 | 1614.5 | 4.508
303.15 K, x1 = 0.9537 | 936.554 | 1632.6 | 4.49
308.15 K, x1 = 0.054 | 803.363 | 1192.6 | 2.815
308.15 K, x1 = 0.1043 | 814.618 | 1224.2 | 3.146
308.15 K, x1 = 0.1529 | 824.666 | 1254 | 3.463
308.15 K, x1 = 0.2068 | 834.918 | 1285.4 | 3.654
308.15 K, x1 = 0.2535 | 843.178 | 1310.6 | 3.768
308.15 K, x1 = 0.305 | 851.532 | 1337.4 | 3.855
308.15 K, x1 = 0.4057 | 866.568 | 1386.9 | 3.927
308.15 K, x1 = 0.5036 | 879.851 | 1431.7 | 3.966
308.15 K, x1 = 0.6053 | 892.938 | 1475.8 | 3.919
308.15 K, x1 = 0.7048 | 907.117 | 1515.9 | 3.899
308.15 K, x1 = 0.8098 | 916.922 | 1556.7 | 3.817
308.15 K, x1 = 0.8522 | 921.354 | 1574.1 | 3.807
308.15 K, x1 = 0.9074 | 927.328 | 1595.3 | 3.789
308.15 K, x1 = 0.9537 | 932.338 | 1613.3 | 3.78
313.15 K, x1 = 0.054 | 799.326 | 1175.8 | –
313.15 K, x1 = 0.1043 | 810.545 | 1208 | –
313.15 K, x1 = 0.1529 | 820.566 | 1237.8 | –
313.15 K, x1 = 0.2068 | 830.795 | 1269.1 | –
313.15 K, x1 = 0.2535 | 839.045 | 1294.6 | –
313.15 K, x1 = 0.305 | 847.399 | 1321.3 | –
313.15 K, x1 = 0.4057 | 862.439 | 1371 | –
313.15 K, x1 = 0.5036 | 875.718 | 1414.9 | –
313.15 K, x1 = 0.6053 | 888.795 | 1459.1 | –
313.15 K, x1 = 0.7048 | 902.896 | 1499.5 | –
313.15 K, x1 = 0.8098 | 912.74 | 1538.9 | –
313.15 K, x1 = 0.8522 | 917.161 | 1555.8 | –
313.15 K, x1 = 0.9074 | 923.121 | 1576.3 | –
313.15 K, x1 = 0.9537 | 928.116 | 1593.7 | –
